Species on record: Rattus norvegicus
Assay: Inhibition of rat recombinant geranylgeranyltransferase type I expressed in Escherichia coli assessed as residual enzyme activity for geranylgeranylation of K-Ras4B at 50 uM incubated for 30 mins in presence of [3H]GGPP by scintillation counting assay relative to control

Row | Activity | SMILES
1 | 86.8% | Cc1ccc([C@@H]2CC=C(C(=O)O)[C@H](c3ccc(Cl)cc3)N2S(=O)(=O)c2ccccc2C)cc1
2 | 66.1% | COc1ccc([C@@H]2CC=C(C(=O)O)[C@H](c3ccc(F)cc3)N2S(=O)(=O)c2ccccc2C)cc1
3 | 65.1% | Cc1ccc(S(=O)(=O)N2[C@@H](c3ccc(F)cc3)C(C(=O)O)=CC[C@H]2c2ccc(C#N)cc2)cc1
4 | 66.7% | Cc1ccc(S(=O)(=O)N2[C@@H](c3cccc(C)c3)C(C(=O)O)=CC[C@H]2c2ccc(C#N)cc2)cc1
5 | 76.1% | Cc1ccc(S[C@@H]2C[C@@H](c3ccc(Cl)cc3)N(S(=O)(=O)c3ccc(C)cc3)C[C@H]2C(=O)O)cc1
6 | 35% | COc1cccc([C@@H]2C[C@@H](SCc3ccccc3)[C@H](C(=O)O)CN2S(=O)(=O)c2ccc(C)cc2)c1
7 | 74.4% | Cc1ccc(S(=O)(=O)N2[C@@H](c3ccc(Br)cc3)C(C(=O)O)=CC[C@H]2c2ccc3c(c2)OCO3)cc1
8 | 84.8% | COc1ccc([C@@H]2C[C@@H](Sc3ccc(C)cc3)[C@H](C(=O)O)CN2S(=O)(=O)c2ccccc2)cc1
9 | 74.4% | CCS[C@@H]1C[C@@H](c2ccc(OC)c(OC)c2)N(S(=O)(=O)c2ccc(C)cc2)C[C@H]1C(=O)O
10 | 98.8% | CC(=O)C1=CC[C@@H](c2ccccc2)N(S(=O)(=O)c2ccc(C)cc2)C1
11 | 91.9% | CC(=O)C1=CC[C@@H](c2ccc(Cl)cc2)N(S(=O)(=O)c2ccccc2C)C1
12 | 81.2% | CCCCCCS[C@@H]1C[C@@H](c2ccc(C)cc2)N(S(=O)(=O)c2ccccc2)C[C@H]1C(=O)O
13 | 91.8% | COc1ccc([C@@H]2C[C@@H](Sc3ccc(C)cc3)[C@H](C(=O)O)CN2S(=O)(=O)c2ccc(C)cc2)cc1
14 | 54.4% | Cc1ccccc1S(=O)(=O)N1[C@@H](c2ccc(Cl)cc2)C(C(=O)O)=CC[C@H]1c1ccc(Cl)cc1
15 | 84.5% | Cc1ccc([C@@H]2CC=C(C(=O)O)[C@H](c3ccc(Br)cc3)N2S(C)(=O)=O)cc1
16 | 50.9% | CCOc1ccc([C@@H]2C[C@@H](SCc3ccccc3)[C@H](C(=O)O)CN2S(=O)(=O)c2ccc(C)cc2)cc1
17 | 52.8% | Cc1ccc(S(=O)(=O)N2[C@@H](c3cccc(F)c3)C(C(=O)O)=CC[C@H]2c2cccc(Cl)c2)cc1
18 | 53.2% | Cc1ccccc1S(=O)(=O)N1C[C@@H](C(=O)O)[C@H](SCCC(C)C)C[C@H]1c1ccc(Cl)cc1
19 | 69.2% | CCc1ccc([C@@H]2CC=C(C(=O)O)[C@H](c3ccc(Br)cc3)N2S(=O)(=O)c2ccc(C)cc2)cc1
20 | 54.2% | COC(=O)c1ccccc1S(=O)(=O)N1[C@@H](c2cccc(C)c2)C(C(=O)O)=CC[C@H]1c1ccc(C)cc1
21 | 64.9% | Cc1ccc(S(=O)(=O)N2[C@@H](c3cccc(C)c3)C(C(=O)O)=CC[C@H]2c2ccccc2)cc1
22 | 57% | Cc1ccc([C@@H]2C[C@@H](Sc3ccc(Cl)cc3)[C@H](C(=O)O)CN2S(=O)(=O)c2ccc(C)cc2)cc1
23 | 69.6% | Cc1ccc([C@@H]2C[C@@H](SCc3ccc(C(C)(C)C)cc3)[C@H](C(=O)O)CN2S(=O)(=O)c2ccc(C)cc2)cc1
24 | 105% | CCCCCS[C@@H]1C[C@@H](c2cccc(OC)c2)N(S(=O)(=O)c2ccc(C)cc2)C[C@H]1C(=O)O
25 | 66.3% | CCCCCCS[C@@H]1C[C@@H](c2ccc(Cl)cc2)N(S(=O)(=O)c2ccccc2C)C[C@H]1C(=O)O
26 | 93.2% | Cc1ccc([C@@H]2C[C@@H](SC3CCCC3)[C@H](C(=O)O)CN2S(=O)(=O)c2ccc(Cl)cc2)cc1

Row | Activity | SMILES
27 | 63.5% | CS(=O)(=O)N1[C@@H](c2cccc(Br)c2)C(C(=O)O)=CC[C@H]1c1ccccc1
28 | 45.7% | CCc1ccc([C@@H]2C[C@@H](Sc3ccccc3)[C@H](C(=O)O)CN2S(=O)(=O)c2ccc(C)cc2)cc1
29 | 57.4% | Cc1ccc(S(=O)(=O)N2C[C@@H](C(=O)O)[C@H](Sc3ccccc3)C[C@H]2c2ccc3c(c2)OCO3)cc1
30 | 78.5% | COc1ccc([C@@H]2C[C@@H](Sc3ccc(C)cc3)[C@H](C(=O)O)CN2S(=O)(=O)c2ccccc2C)cc1
31 | 75.3% | COc1ccc([C@@H]2C[C@@H](SCCc3ccccc3)[C@H](C(=O)O)CN2S(=O)(=O)c2ccc(Cl)cc2)cc1
32 | 68.3% | CCCCCCS[C@@H]1C[C@@H](c2ccc(OC)cc2)N(S(=O)(=O)c2ccc(Cl)cc2)C[C@H]1C(=O)O
33 | 93.5% | Cc1ccc([C@@H]2C[C@@H](SC3CCCC3)[C@H](C(=O)O)CN2S(=O)(=O)c2ccccc2C)cc1
34 | 67.2% | CS(=O)(=O)N1[C@@H](c2ccc(F)cc2)C(C(=O)O)=CC[C@H]1c1ccccc1
35 | 71.6% | CCCCCCS[C@@H]1C[C@@H](c2ccc(C)cc2)N(S(=O)(=O)c2ccc(Cl)cc2)C[C@H]1C(=O)O
36 | 102% | COc1cc([C@@H]2C[C@@H](Sc3ccc(Cl)cc3)[C@H](C(=O)O)CN2S(=O)(=O)c2ccc(C)cc2)cc(OC)c1OC
37 | 90.9% | Cc1ccc(S(=O)(=O)N2C[C@@H](C(=O)O)[C@H](Sc3ccc(Cl)cc3)C[C@H]2c2ccc3c(c2)OCO3)cc1
38 | 89.1% | CCCCCS[C@@H]1C[C@@H](c2ccc(OCC)cc2)N(S(=O)(=O)c2ccc(C)cc2)C[C@H]1C(=O)O
39 | 83.6% | CCCCCCS[C@@H]1C[C@@H](c2ccc(OC)cc2)N(S(=O)(=O)c2ccc(C)cc2)C[C@H]1C(=O)O
40 | 61.6% | Cc1ccc([C@H]2C(C(=O)O)=CC[C@@H](c3ccc(Cl)cc3)N2S(=O)(=O)c2ccccc2C)cc1
41 | 58% | Cc1ccc(S(=O)(=O)N2[C@@H](c3cccc(C)c3)C(C(=O)O)=CC[C@H]2c2cccc(C)c2)cc1
42 | 76.9% | COC(=O)c1ccccc1S(=O)(=O)N1[C@@H](c2ccc(F)cc2)C(C(=O)O)=CC[C@H]1c1ccc(C)cc1
43 | 64.5% | COc1cccc([C@@H]2C[C@@H](SCC(C)C)[C@H](C(=O)O)CN2S(=O)(=O)c2ccc(C)cc2)c1
44 | 83.6% | CS(=O)(=O)N1[C@@H](c2ccc(Br)cc2)C(C(=O)O)=CC[C@H]1c1ccccc1
45 | 71% | CCCS[C@@H]1C[C@@H](c2ccc(Cl)cc2)N(S(=O)(=O)c2ccc(C)cc2)C[C@H]1C(=O)O
46 | 72.5% | COc1ccc([C@@H]2CC=C(C(=O)O)[C@H](c3ccc(C)cc3)N2S(=O)(=O)c2ccc(Cl)cc2)cc1
47 | 61.4% | Cc1ccc(S(=O)(=O)N2C[C@@H](C(=O)O)[C@H](SCc3ccc(Cl)cc3)C[C@H]2c2ccccc2F)cc1
48 | 82.9% | COc1cccc([C@@H]2CC=C(C(=O)O)[C@H](c3cccc(F)c3)N2S(=O)(=O)c2ccc(C)cc2)c1
49 | 44.1% | COc1ccc([C@@H]2C[C@@H](SCCc3ccccc3)[C@H](C(=O)O)CN2S(=O)(=O)c2ccc(C)cc2)cc1OC
50 | 69.8% | CCCS[C@@H]1C[C@@H](c2ccc(C)cc2)N(S(=O)(=O)c2ccc(C)cc2)C[C@H]1C(=O)O
51 | 106% | COc1cc([C@@H]2C[C@@H](SCCC(C)C)[C@H](C(=O)O)CN2S(=O)(=O)c2ccc(C)cc2)cc(OC)c1OC
52 | 83.9% | CCCCS[C@@H]1C[C@@H](c2cccc(OC)c2)N(S(=O)(=O)c2ccc(C)cc2)C[C@H]1C(=O)O

Row | Activity | SMILES
53 | 96.7% | C=CCS[C@@H]1C[C@@H](c2ccc(OCC)cc2)N(S(=O)(=O)c2ccc(C)cc2)C[C@H]1C(=O)O
54 | 41.1% | Cc1ccc(S(=O)(=O)N2[C@@H](c3cccc(Br)c3)C(C(=O)O)=CC[C@H]2c2ccc(C(C)C)cc2)cc1
55 | 51.9% | COc1ccc([C@@H]2CC=C(C(=O)O)[C@H](c3cccc(Br)c3)N2S(=O)(=O)c2ccccc2C)cc1
56 | 88.8% | Cc1ccc(S[C@@H]2C[C@@H](c3cccc(Cl)c3)N(S(=O)(=O)c3ccc(C)cc3)C[C@H]2C(=O)O)cc1
57 | 69.9% | CCCCCCS[C@@H]1C[C@@H](c2ccc(C)cc2)N(S(=O)(=O)c2ccccc2C)C[C@H]1C(=O)O
58 | 84.4% | Cc1ccc([C@@H]2CC=C(C(=O)O)[C@H](c3ccc(F)cc3)N2S(C)(=O)=O)cc1
59 | 43.7% | CCc1ccc([C@@H]2C[C@@H](SCc3ccc(Cl)cc3)[C@H](C(=O)O)CN2S(=O)(=O)c2ccc(C)cc2)cc1
60 | 86.6% | Cc1ccccc1S(=O)(=O)N1[C@@H](c2ccc(Br)cc2)C(C(=O)O)=CC[C@H]1c1ccc(Cl)cc1
61 | 57.3% | COc1ccc([C@@H]2C[C@@H](SCc3ccccc3)[C@H](C(=O)O)CN2S(=O)(=O)c2ccccc2)cc1
62 | 90.8% | CCc1ccc([C@@H]2C[C@@H](Sc3ccc(OC)cc3)[C@H](C(=O)O)CN2S(=O)(=O)c2ccc(C)cc2)cc1
63 | 63.2% | CCS[C@@H]1C[C@@H](c2ccc(Cl)cc2)N(S(=O)(=O)c2ccccc2C)C[C@H]1C(=O)O
64 | 110% | CC(C)(C)c1ccc([C@H]2C(C(=O)O)=CC[C@@H](c3ccc(Cl)cc3)N2S(=O)(=O)c2ccc(Cl)cc2)cc1
65 | 86.7% | CCCCCS[C@@H]1C[C@@H](c2ccc(OC)cc2)N(S(=O)(=O)c2ccc(C)cc2)C[C@H]1C(=O)O
66 | 90.3% | CC(=O)C1=CC[C@@H](c2cccs2)N(S(=O)(=O)c2ccc(C)cc2)C1
67 | 99.5% | CCc1ccc([C@@H]2C=CCCN2S(=O)(=O)c2ccc(C)cc2)cc1
68 | 55.2% | CCc1ccc([C@@H]2CC=C(C(=O)O)[C@H](c3ccc(F)cc3)N2S(=O)(=O)c2ccc(C)cc2)cc1
69 | 77.3% | COc1ccc([C@@H]2CC=C(C(C)=O)CN2S(=O)(=O)c2ccccc2C)cc1
70 | 61.4% | CCCCCS[C@@H]1C[C@@H](c2ccccc2F)N(S(=O)(=O)c2ccc(C)cc2)C[C@H]1C(=O)O
71 | 75.6% | Cc1ccc([C@@H]2CC=C(C(=O)O)[C@H](c3cccc(Br)c3)N2S(=O)(=O)c2ccc(C)cc2)cc1
72 | 66.1% | Cc1ccc([C@H]2C(C(=O)O)=CC[C@@H](c3cccc(Cl)c3)N2S(=O)(=O)c2ccc(C)cc2)cc1
73 | 8.4 to 60% | Cc1ccc([C@@H]2CC=C(C(=O)O)[C@H](c3cccc(Cl)c3)N2S(=O)(=O)c2ccc(Cl)cc2)cc1
74 | 62.7% | CCCCCCS[C@@H]1C[C@@H](c2ccc3c(c2)OCO3)N(S(=O)(=O)c2ccc(C)cc2)C[C@H]1C(=O)O
75 | 90.4% | Cc1ccc([C@H]2C(C(=O)O)=CC[C@@H](c3ccccc3)N2S(C)(=O)=O)cc1
76 | 87.5% | CCCCS[C@@H]1C[C@@H](c2ccc(Cl)cc2)N(S(=O)(=O)c2ccccc2C)C[C@H]1C(=O)O
77 | 62.6% | Cc1ccc(S(=O)(=O)N2[C@@H](c3ccc(Br)cc3)C(C(=O)O)=CC[C@H]2c2ccc(F)cc2)cc1

Source: ChEMBL document CHEMBL4421722, “Inhibitors of protein prenyltransferases” (2013)
